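Method: 48-hour compound exposure of cells in 96-well plates, five concentrations, linear interpolation of endpoints. GI50 is the concentration that inhibits growth by half.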 Calls of active or inactive are those of the source. Cut-off read from the data, not from the text of the source: active = GI50 up to about 1.1 µM and inactive = higher.
What was measured:
Experiment in all cases: DTP human tumour cell line panel, 48 h
COLO 205 = system: COLO 205
SF-268 = system: SF-268
CCRF-CEM = system: CCRF-CEM
SF-539 = system: SF-539
HCT-116 = system: HCT-116
HCC 2998 = system: HCC 2998
SF-295 = system: SF-295
DMS-114 = system: DMS-114
NCI-H23 = system: NCI-H23
DMS-273 = system: DMS-273
Malme-3M = system: Malme-3M
OVCAR-8 = system: OVCAR-8
SNB-75 = system: SNB-75
A549 = system: A549
HT-29 = system: HT-29
RPMI-8226 = system: RPMI-8226
UACC-257 = system: UACC-257
KM-20L2 = system: KM-20L2
HL-60 = system: HL-60
M19-MEL = system: M19-MEL
SN12C = system: SN12C
NCI-H226 = system: NCI-H226
OVCAR-5 = system: OVCAR-5
HOP-92 = system: HOP-92
NCI/ADR-RES = system: NCI/ADR-RES
SK-MEL-5 = system: SK-MEL-5
SK-MEL-2 = system: SK-MEL-2
U-251 = system: U-251
XF498 = system: XF498
DLD-1 = system: DLD-1
OVCAR-3 = system: OVCAR-3
KM12 = system: KM12
RXF 393 = system: RXF 393
NCI-H460 = system: NCI-H460
HOP-18 = system: HOP-18
OVCAR-4 = system: OVCAR-4
UO-31 = system: UO-31
MOLT-4 = system: MOLT-4
K562 = system: K562
A498 = system: A498
SK-MEL-28 = system: SK-MEL-28
EKVX = system: EKVX
HCT-15 = system: HCT-15
SW-620 = system: SW-620
NCI-H522 = system: NCI-H522
UACC-62 = system: UACC-62
LOX IMVI = system: LOX IMVI
SNB-19 = system: SNB-19
SK-OV-3 = system: SK-OV-3
HOP-62 = system: HOP-62
IGROV-1 = system: IGROV-1
MCF7 = system: MCF7
Hs-578T = system: Hs-578T
MDA-MB-231 = system: MDA-MB-231
SR = system: SR
PC-3 = system: PC-3
M14 = system: M14
ACHN = system: ACHN
CAKI-1 = system: CAKI-1
T47D = system: T47D
LXFL 529 = system: LXFL 529
SNB-78 = system: SNB-78
DU-145 = system: DU-145
MDA-MB-435 = system: MDA-MB-435
786-0 = system: 786-0
MDA-N = system: MDA-N
TK-10 = system: TK-10
BT-549 = system: BT-549

Measured: GI50

O=S(=O)(O)c1ccc(/N=N\c2ccc(/N=N\c3ccc(/C=C/c4ccc(/N=[N+](/[O-])c5ccc(/C=C/c6ccc(/N=N/c7ccc(/N=N\c8ccc(S(=O)(=O)O)cc8)cc7)cc6S(=O)(=O)O)c(S(=O)(=O)O)c5)cc4S(=O)(=O)O)c(S(=O)(=O)O)c3)cc2)cc1
inactive: COLO 205 > 100 µM | SF-268 > 100 µM | CCRF-CEM > 100 µM | SF-539 > 100 µM | HCT-116 > 100 µM | HCC 2998 > 100 µM | SF-295 > 100 µM | DMS-114 > 100 µM | NCI-H23 > 100 µM | DMS-273 > 100 µM | Malme-3M > 100 µM | OVCAR-8 > 100 µM | SNB-75 69.7 µM | A549 > 100 µM | HT-29 > 100 µM | RPMI-8226 > 100 µM | UACC-257 > 100 µM | KM-20L2 > 100 µM | HL-60 > 100 µM | M19-MEL > 100 µM | SN12C > 100 µM | NCI-H226 > 67.8 µM | OVCAR-5 > 100 µM | HOP-92 > 100 µM | NCI/ADR-RES > 100 µM | SK-MEL-5 > 100 µM | SK-MEL-2 > 100 µM | U-251 > 100 µM | XF498 > 100 µM | DLD-1 > 100 µM | OVCAR-3 > 100 µM | KM12 > 100 µM | RXF 393 > 100 µM | NCI-H460 > 100 µM | HOP-18 > 100 µM | OVCAR-4 > 87.9 µM | UO-31 > 100 µM | MOLT-4 > 100 µM | K562 > 100 µM | A498 > 100 µM | SK-MEL-28 > 100 µM | EKVX > 100 µM | SW-620 > 100 µM | NCI-H522 86.3 µM | UACC-62 > 100 µM | LOX IMVI > 100 µM | SNB-19 > 100 µM | SK-OV-3 > 100 µM | HOP-62 > 100 µM | IGROV-1 > 100 µM | MCF7 > 100 µM
> 100 µM: HCT-15

C[C@]12C=CC(=O)C=C1[C@@H](F)C[C@H]1[C@@H]3CC[C@](O)(C(=O)CO)[C@@]3(C)C[C@H](O)[C@@]12F
inactive: COLO 205 > 100 µM | SF-268 > 100 µM | Hs-578T > 100 µM | SF-539 > 100 µM | HCT-116 > 100 µM | HCC 2998 > 100 µM | SF-295 > 100 µM | DMS-114 > 100 µM | MDA-MB-231 > 100 µM | NCI-H23 > 100 µM | DMS-273 > 100 µM | SR > 100 µM | Malme-3M > 100 µM | OVCAR-8 > 100 µM | SNB-75 > 100 µM | A549 > 100 µM | HT-29 > 100 µM | PC-3 > 100 µM | M14 > 100 µM | RPMI-8226 > 87.5 µM | ACHN > 100 µM | UACC-257 > 100 µM | KM-20L2 > 100 µM | HL-60 > 100 µM | M19-MEL > 100 µM | SN12C > 100 µM | NCI-H226 52.6 µM | OVCAR-5 > 59.6 µM | HOP-92 > 100 µM | NCI/ADR-RES > 100 µM | SK-MEL-5 > 100 µM | CAKI-1 > 100 µM | SK-MEL-2 > 100 µM | T47D > 100 µM | U-251 > 100 µM | XF498 97.7 µM | DLD-1 > 100 µM | OVCAR-3 > 100 µM | KM12 > 100 µM | LXFL 529 > 100 µM | RXF 393 > 85.5 µM | NCI-H460 > 100 µM | SNB-78 > 84.1 µM | OVCAR-4 > 100 µM | UO-31 > 100 µM | DU-145 > 100 µM | MDA-MB-435 > 100 µM | MOLT-4 > 100 µM | K562 > 100 µM | 786-0 > 100 µM | MDA-N > 100 µM | A498 > 100 µM | SK-MEL-28 > 100 µM | EKVX > 64.4 µM | SW-620 > 100 µM | NCI-H522 > 100 µM | UACC-62 > 100 µM | LOX IMVI > 100 µM | SNB-19 > 100 µM | SK-OV-3 3.33 µM | HOP-62 > 100 µM | IGROV-1 > 100 µM | MCF7 > 100 µM | TK-10 > 100 µM | BT-549 > 100 µM
> 100 µM: HCT-15
active: CCRF-CEM 0.543 µM

From ChEMBL document CHEMBL1201862, “PubChem BioAssay data set” (2004)
